From patent US5442064A, “Carboxylic acid derivatives, pharmaceutical compositions containing these compounds and processes for preparing them” (Dr. Karl Thomae GmbH, priority 1992, dated 1995)
Structures can show the parent of a compound that is named as a salt.

Columns and labels:
mice = assay: Tolerability after intravenous administration to mice; type: in vivo; conditions: 30 mg/kg, three mice in each case
platelet aggregation = assay: Inhibition of platelet aggregation (collagen-induced, Born and Cross, platelet-rich plasma of healthy volunteers); type: cell-based; conditions: Homo sapiens, Platelet, 10 minutes preincubation at 37° C
Protocol: In order to do this, donor blood is taken from an anticubital vein and anticoagulated with trisodium citrate (final concentration 13 mM). The blood is centrifuged for 10 minutes at 170×g and the supernatant platelet-rich plasma (PRP) is removed. The remaining blood is vigorously centrifuged once more in order to obtain plasma. The PRP is diluted 1:10 with autologous plasma. 750 μl are incubated with 50 μl of physiological saline solution, 100 μl of test substance solution, 50 μl of ^14 C-sucrose (3,700 Bq) and 50 μl of ^3 H-BIBU 52 (final concentration: 5 nM) at ambient temperature for 20 minutes. In order to measure the non-specific binding, 5μl of BIBU 52 (final concentration: 30 μM) are used instead of the test substance. The samples are centrifuged for 20 seconds at 10,000×g and the supernatant is poured off. 100 μl thereof are measured in order to determine the free ligand. The pellet is dissolved in 500 μl of 0.2N NaOH, 450 μl are mixed with 2 ml of scintillator and 25 μl of 5N HCl and measured. The residual plasma remaining in the pellet is determined from the ^14 C-content and the bound ligand is determined from the ^3 H-measurement. After the non-specific binding has been deducted, the pellet activity is plotted against the concentration of the test substance and the concentration for 50% inhibition of binding is determined. 2. Antithrombotic activity The thrombocyte aggregation is measured using the method of Born and Cross (J. Physiol. 170: 397 (1964)) in platelet-rich plasma taken from healthy volunteers. To inhibit coagulation the blood is mixed with 3.14% sodium citrate in a volume ratio of 1:10. The pattern of the decrease in optical density of the platelet suspension is photometrically measured and recorded after the addition of the aggregation-triggering substance. The rate of aggregation is determined from the angle of inclination of the density curve. The point on the curve where there is maximum light transmittance is used to calculate the optical density. The concentration of collagen used is as small as possible but sufficient to produce an irreversible reaction curve. Standard commercial collagen produced by Hormonchemie of Munich is used. Before the addition of the collagen the plasma is incubated for 10 minutes with the substance at 37° C. From the concentration/activity curve an EC50 is determined, which describes the concentration giving a 50% change in the optical density in terms of the inhibition of aggregation.

human thrombocytes = assay: Competitive binding of ^3 H-BIBU 52/test substance to human thrombocytes; conditions: human thrombocytes in plasma; ^3 H-BIBU 52 5 nM; ambient temperature, 20 minutes
Protocol: 1. Competitive binding of ^3 H-BIBU 52/test substance to human thrombocytes: […] Case 5/1093-FL), which replaces the ^125 I fibrinogen ligand known from the literature and various concentrations of the substance to be tested. The free and bound ligand is separated by centrifuging and quantified by scintillation counting. The inhibition of ^3 H-BIBU 52 binding by the test substance is determined from the measurements obtained. In order to do this, donor blood is taken from an anticubital vein and anticoagulated with trisodium citrate (final concentration 13 mM). The blood is centrifuged for 10 minutes at 170×g and the supernatant platelet-rich plasma (PRP) is removed. The remaining blood is vigorously centrifuged once more in order to obtain plasma. The PRP is diluted 1:10 with autologous plasma. 750 μl are incubated with 50 μl of physiological saline solution, 100 μl of test substance solution, 50 μl of ^14 C-sucrose (3,700 Bq) and 50 μl of ^3 H-BIBU 52 (final concentration: 5 nM) at ambient temperature for 20 minutes. In order to measure the non-specific binding, 5μl of BIBU 52 (final concentration: 30 μM) are used instead of the test substance. The samples are centrifuged for 20 seconds at 10,000×g and the supernatant is poured off. 100 μl thereof are measured in order to determine the free ligand. The pellet is dissolved in 500 μl of 0.2N NaOH, 450 μl are mixed with 2 ml of scintillator and 25 μl of 5N HCl and measured. The residual plasma remaining in the pellet is determined from the ^14 C-content and the bound ligand is determined from the ^3 H-measurement. After the non-specific binding has been deducted, the pellet activity is plotted against the concentration of the test substance and the concentration for 50% inhibition of binding is determined. 2. Antithrombotic activity

[1] = system: collagen-induced thrombocyte aggregation; assay: Collagen-induced thrombocyte aggregation ex vivo after oral administration, Rhesus monkeys; type: in vivo; conditions: 1 mg/kg, collagen 2 μg/ml
Protocol: The inhibition of thrombocyte aggregation after oral administration of the test substance is determined ex vivo on Rhesus monkeys. Directly before the oral administration of the test substance suspended in Natrosol, a blood sample is taken from the cubital vein of the animals to provide a reference value. At specified times after the administration of the substance, fresh blood samples are taken and investigated as follows. The whole blood mixed with 3.14% sodium citrate in a ratio by volume of 1:10 is centrifuged at 200×g for 15 minutes. The supernatant, platelet-rich plasma, is carefully removed. From the sediment which is rich in erythrocytes, the platelet-poor plasma is obtained as supernatant,by centrifuging at 4000×g for 10 minutes. The thrombocyte aggregation triggered with collagen (Hormonchemie, Munich; 2 μg/ml final concentration in platelet-rich plasma) in these ex vivo samples is measured photometrically using the method of Born and Cross (J. Physiol. 170, 397 (1964)). The maximum light transmittance of the platelet-rich plasma, measured after collagen stimulation, is compared with the reference value in order to determine the inhibition of aggregation at the various times of blood sampling after the administration of the substance, relative to the reference value.

SMILES | tolerability (animals died) (mice) | EC50 (platelet aggregation) [nM] | IC50 (human thrombocytes) [nM] | inhibits the collagen-induced thrombocyte aggregation ex vivo (duration) [1]
Cl.Cl.N=C(N)c1ccc(N2CCN(C(=O)N[C@H]3CC[C@H](C(=O)O)CC3)CC2)nc1 [2(7), 1-(5-amidinopyrid-2-yl)-4-[N-(trans-4-carboxycyclohexyl)-aminocarbonyl]-piperazine-dihydrochloride] | no animals died | 80 | 29 | –
Cl.Cl.N=C(N)c1ccc(N2CCN(C(=O)N[C@H]3CC[C@H](C(=O)O)CC3)CC2)cc1.O [Example 2, 1-(4-Amidinophenyl)-4-[N-[trans-4-carboxycyclohexyl]aminocarbonyl]-piperazine-dihydrochloride-hydrate] | no animals died | 40 | 7.4 | –
COC(=O)N=C(N)c1ccc(N2CCN(C(=O)N[C@H]3CC[C@H](C(=O)OC)CC3)CC2)cc1 [Example 5, 1-[4-(N-Methoxycarbonyl-amidinc)-phenyl]-4-[N-[trans-4-(methoxycarbonyl)-cyclohexyl]-aminocarbonyl]-piperazine] | no animals died | – | – | –
COC(=O)[C@H]1CC[C@H](NC(=O)C2CCN(c3ccc(C(=N)N)cc3)CC2)CC1.Cl [Example 1(24), 1-(4-amidinophenyl)-4-[N-[trans-4-(methoxycarbonyl)-cyclohexyl]-aminocarbonyl]-piperidine-hydrochloride] | – | 220 | 4400 | more than 4 hours
NCc1ccc(N2CCN(C(=O)N[C@H]3CC[C@H](C(=O)O)CC3)CC2)cc1 [Example 3, 1-(4-Aminomethylphenyl)-4-[N-(trans-4-carboxycyclohexyl)-aminocarbonyl]-piperazine] | no animals died | 230 | 130 | –
CN(C(=O)N1CCN(c2ccc(C(=N)N)cc2)CC1)[C@H]1CC[C@H](C(=O)OC2CCCCC2)CC1 [7(2), 1-(4-amidinophenyl)-4-[N-[trans-4-(cyclohexyloxy-carbonyl)-cyclohexyl]-N-methyl-aminocarbonyl]-piperazine-dihydrochloride] | – | 360 | 2100 | –
CN(C(=O)N1CCN(c2ccc(C(=N)N)cn2)CC1)[C@H]1CC[C@H](C(=O)O)CC1.Cl.Cl [2(8), 1-(5-amidinopyrid-2-yl)-4-[N-(trans-4-carboxycyclohexyl)-N-methyl-aminocarbonyl]-piperazine-dihydrochloride] | no animals died | 60 | 27 | –
N=C(N)c1ccc(N2CCN(C(=O)N3CC=C(CC(=O)O)CC3)CC2)cc1 [2(19), 1-(4-amidinophenyl)-4-[4-(carboxymethyl)-3,4-dehydro-piperidinocarbonyl]-piperazine-dihydrochloride] | – | 620 | 370 | –
